# Measured values as given in patent US9187455B2, “Substituted pyridazines as PDE10A inhibitors” (Hoffmann-La Roche Inc., priority 2009, dated 2015).
# Biological target: T1, PDE10A2 (Homo sapiens, UniProt Q9Y233)
# T1 construct: residues serine 449 to aspartate 789; His6 (H6) with Gateway linker and thrombin cleavage site (N, cleaved yes); made in house; host or cells: E. coli BL21(DE3) pLysS
# Test: PDE10A2 Scintillation Proximity Assay (SPA), [3H]-cGMP hydrolysis
# Format: biochemical
# Conditions: catalytic domain of human PDE10A2 (S449-D789), 0.25 nM enzyme, 50 nM cGMP + 50 nM [3H]-cGMP, 30 minutes at room temperature; read-out: PDE10A2 inhibition IC50
# Experimental: The following tests were carried out in order to determine the activity of the compounds of the present invention. PDE10 activity of the compounds of the present invention is determined using a Scintillation Proximity Assay (SPA)-based method similar to the one previously described (Fawcett, L. et al., ProcNatl Acad Sci USA (2000) 97(7):3702-3707).
# PDE10A1 and PDE10A2 are two splice variants of PDE10A. There are these 2 splice variants known, which differ in the N-terminal part of the protein. The catalytic domains of PDE10A1 and PDE10A2 are identical. The assay for PDE10A2 described below is therefore also representative for PDE10A1 and also for PDE10A in general.
# The PDE10A2 assay was performed in a two step procedure in 96-well micro titer plates. The reaction mixture of 80 μl contained 20 mM HEPES/10 mM MgCl2/[…] (pH 7.5), 50 nM cGMP (Sigma) and 50 nM [^3H]-cGMP (GE Healthcare), 0.25 nM PDE10A2 with or without a specific test compound. A range of concentrations of the potential inhibitor was used to generate data for calculating the concentration of inhibitor resulting in 50% of the effect (e.g. IC50, the concentration of the competitor inhibiting PDE10A2 activity 50%). Non-specific activity was tested without the enzyme. The reaction was initiated by addition of the substrate solution (cGMP and [^3H]-cGMP) and allowed to progress for 30 minutes at room temperature. The reaction was terminated by transferring 50 μl of the reaction mixture into an OptiPlate (Perkin Elmer) containing 25 μl of YSi-SPA scintillation beads (GE Healthcare) in 18 mM zinc sulphate solution (stop reagent). After 1 h under shaking, the plate was centrifuged one minute at 1000 rpm to allow beads to settle. Afterwards, radioactive counts were measured on a Perkin Elmer TopCount Scintillation plate reader.
# The catalytic domain of human PDE10A2, residues serine 449 to aspartate 789, was amplified by PCR using cDNA (Origene) and the oligonucleotides 5′-GGGGACAAGTTTGT […]-3′ (with AttB1 recombination site in bold and thrombin protease cleavage site in italics) and 5′-[…]-3′ (with AttB2 recombination site in bold) which conferred Gateway recombination sites. The PCR product was used in a BP recombination reaction with pDONR221 to generate pENTR Thm-PDE10A2(S449-D789) which was DNA sequence verified and then used in an LR recombination reaction with a Gateway modified version of pET11a. The resulting expression vector, placT7.2H6-(gwl)-Thm-PDE10A2(S449-D789) was DNA sequence confirmed and transformed into E. coli strain BL21(DE3) pLysS and recombinant protein was produced in TB medium at 20° C. by induction to a final IPTG concentration of 0.5 mM at an optical density of 1.0 at 600 nm for 20 hours. About 30% of the protein was in the soluble fraction of the cell homogenate. The protein was purified using sequential chromatography on Ni-NTA and HiTrapQ/HiTrapS. After thrombin digest at room temperature a HiTrapChelating/HiTrap Benzamindin chromatography removed impurities, uncleaved protein and thrombin. Final purification of PDE10A2(S449-D789) was performed on a Superdex 75 size exclusion chromatography equilibrated with 25 mM HEPES pH 8.4, 0.15 M NaCl. The yield of pure protein was 2 mg/liter of culture volume is relatively low. The purity of the protein was >95%, monomeric and monodisperse as shown by SDS-PAGE, HPLC and analytical ultracentrifugation.
# T1 sequence (Q9Y233 715-1055): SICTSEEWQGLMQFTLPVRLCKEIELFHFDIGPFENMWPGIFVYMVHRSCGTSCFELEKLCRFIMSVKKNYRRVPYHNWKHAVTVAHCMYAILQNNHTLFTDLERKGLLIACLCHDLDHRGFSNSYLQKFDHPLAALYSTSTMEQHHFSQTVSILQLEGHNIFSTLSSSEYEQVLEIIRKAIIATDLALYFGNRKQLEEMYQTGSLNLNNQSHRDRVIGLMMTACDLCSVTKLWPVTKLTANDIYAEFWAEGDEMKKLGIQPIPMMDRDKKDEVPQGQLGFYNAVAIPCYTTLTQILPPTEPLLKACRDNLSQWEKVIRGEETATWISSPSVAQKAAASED
row,Compound,IC50
1,"O=c1ccn(-c2ccncc2)nc1-c1ccnn1-c1ccnc2cc(Cl)ccc12 [Example 91, 3-[2-(7-Chloro-quinolin-4-yl)-2H-pyrazol-3-yl]-1-pyridin-4-yl-1H-pyridazin-4-one]",32 nM
2,"O=c1ccn(-c2ccncc2)nc1-c1ccnn1-c1ccccc1 [Example 30, 3-(2-Phenyl-2H-pyrazol-3-yl)-1-pyridin-4-yl-1H-pyridazin-4-one]",69 nM
3,"O=c1ccn(-c2cccnc2)nc1-c1ccnn1-c1ccnc2ccc(F)cc12 [Example 50, 3-[2-(6-Fluoro-quinolin-4-yl)-2H-pyrazol-3-yl]-1-pyridin-3-yl-1H-pyridazin-4-one]",87 nM
4,"O=c1ccn(-c2ccc3cnccc3c2)nc1-c1ccnn1-c1ccccc1F [Example 100, 3-[2-(2-Fluoro-phenyl)-2H-pyrazol-3-yl]-1-isoquinolin-6-yl-1H-pyridazin-4-one]",31 nM
5,"Cc1ccc(-n2nccc2-c2nn(-c3ccncc3)ccc2=O)cc1 [Example 11, 1-Pyridin-4-yl-3-(2-p-tolyl-2H-pyrazol-3-yl)-1H-pyridazin-4-one]",103 nM
6,"O=c1ccn(-c2cccnc2)nc1-c1ccnn1-c1ccc2c(c1)OCO2 [Example 32, 3-(2-Benzo[1,3]dioxol-5-yl-2H-pyrazol-3-yl)-1-pyridin-3-yl-1H-pyridazin-4-one]",150 nM
7,"Cc1cc(-n2nccc2-c2nn(-c3ccncc3)ccc2=O)ccn1 [Example 19, 3-[2-(2-Methyl-pyridin-4-yl)-2H-pyrazol-3-yl]-1-pyridin-4-yl-1H-pyridazin-4-one]",417 nM
8,"O=c1ccn(-c2ccnc(N3CCOCC3)c2)nc1-c1ccnn1-c1cccc(F)c1 [Example 42, 3-[2-(3-Fluoro-phenyl)-2H-pyrazol-3-yl]-1-(2-morpholin-4-yl-pyridin-4-yl)-1H-pyridazin-4-one]",1420 nM
9,"N#Cc1cncc(-n2ccc(=O)c(-c3ccnn3-c3ccccc3F)n2)c1 [Example 87, 5-{3-[2-(2-Fluoro-phenyl)-2H-pyrazol-3-yl]-4-oxo-4H-pyridazin-1-yl}-nicotinonitrile]",477 nM
10,"O=c1ccn(-c2cncc3ccccc23)nc1-c1ccnn1-c1cccc(Cl)c1 [Example 66, 3-[2-(3-Chloro-phenyl)-2H-pyrazol-3-yl]-1-isoquinolin-4-yl-1H-pyridazin-4-one]",100 nM
11,"O=c1ccn(-c2ccnc(Cl)c2)nc1-c1ccnn1-c1ccnc(Cl)c1 [Example 57, 1-(2-Chloro-pyridin-4-yl)-3-[2-(2-chloro-pyridin-4-yl)-2H-pyrazol-3-yl]-1H-pyridazin-4-one]",1540 nM
12,"O=c1ccn(-c2ccnc(Cl)c2)nc1-c1ccnn1-c1cccc2ccccc12 [Example 13, 1-(2-Chloro-pyridin-4-yl)-3-(2-naphthalen-1-yl-2H-pyrazol-3-yl)-1H-pyridazin-4-one]",11 nM
13,"O=c1ccn(-c2ccnc(Cl)c2)nc1-c1ccnn1-c1cccc(Cl)c1 [Example 56, 3-[2-(3-Chloro-phenyl)-2H-pyrazol-3-yl]-1-(2-chloro-pyridin-4-yl)-1H-pyridazin-4-one]",50 nM
14,"O=c1ccn(-c2ccncc2)nc1-c1ccnn1-c1ccc(Cl)cc1 [Example 6, 3-[2-(4-Chloro-phenyl)-2H-pyrazol-3-yl]-1-pyridin-4-yl-1H-pyridazin-4-one]",188 nM
15,"O=c1ccn(-c2ccncc2)nc1-c1ccnn1-c1ccnc(Cl)c1 [Example 23, 3-[2-(2-Chloro-pyridin-4-yl)-2H-pyrazol-3-yl]-1-pyridin-4-yl-1H-pyridazin-4-one]",1210 nM
16,"Cc1cc(-n2ccc(=O)c(-c3ccnn3-c3ccnc4ccccc34)n2)ccn1 [Example 79, 1-(2-Methyl-pyridin-4-yl)-3-(2-quinolin-4-yl-2H-pyrazol-3-yl)-1H-pyridazin-4-one]",12 nM

row,Compound,IC50
1,"O=c1ccn(-c2ccncc2)nc1-c1ccnn1-c1ccccc1Cl [Example 12, 3-[2-(2-Chloro-phenyl)-2H-pyrazol-3-yl]-1-pyridin-4-yl-1H-pyridazin-4-one]",228 nM
2,"Cc1cc(-n2ccc(=O)c(-c3ccnn3-c3cccc4cnccc34)n2)ccn1 [Example 85, 3-(2-Isoquinolin-5-yl-2H-pyrazol-3-yl)-1-(2-methyl-pyridin-4-yl)-1H-pyridazin-4-one]",46 nM
3,"O=c1ccn(-c2cncc(Cl)c2)nc1-c1ccnn1-c1ccccc1F [Example 64, 1-(5-Chloro-pyridin-3-yl)-3-[2-(2-fluoro-phenyl)-2H-pyrazol-3-yl]-1H-pyridazin-4-one]",148 nM
4,"O=c1ccn(-c2ccnc(Cl)c2)nc1-c1ccnn1-c1cccc2ncccc12 [Example 58, 1-(2-Chloro-pyridin-4-yl)-3-(2-quinolin-5-yl-2H-pyrazol-3-yl)-1H-pyridazin-4-one]",89 nM
5,"O=c1ccn(-c2ccncc2)nc1-c1ccnn1-c1cccc(F)c1F [Example 29, 3-[2-(2,3-Difluoro-phenyl)-2H-pyrazol-3-yl]-1-pyridin-4-yl-1H-pyridazin-4-one]",219 nM
6,"O=c1ccn(-c2ccncc2)nc1-c1ccnn1-c1ccnc2ccccc12 [Example 20, 1-Pyridin-4-yl-3-(2-quinolin-4-yl-2H-pyrazol-3-yl)-1H-pyridazin-4-one]",9 nM
7,"Cc1cc(-n2ccc(=O)c(-c3ccnn3-c3ccccc3F)n2)ccn1 [Example 93, 3-[2-(2-Fluoro-phenyl)-2H-pyrazol-3-yl]-1-(2-methyl-pyridin-4-yl)-1H-pyridazin-4-one]",206 nM
8,"O=c1ccn(-c2ccncc2)nc1-c1ccnn1-c1cncc2ccccc12 [Example 73, 3-(2-Isoquinolin-4-yl-2H-pyrazol-3-yl)-1-pyridin-4-yl-1H-pyridazin-4-one]",188 nM
9,"N#Cc1cccc(-n2nccc2-c2nn(-c3ccncc3)ccc2=O)c1 [Example 3, 3-[5-(4-Oxo-1-pyridin-4-yl-1,4-dihydro-pyridazin-3-yl)-pyrazol-1-yl]-benzonitrile]",319 nM
10,"O=c1ccn(-c2ccc(Cl)nc2)nc1-c1ccnn1-c1ccccc1F [Example 77, 1-(6-Chloro-pyridin-3-yl)-3-[2-(2-fluoro-phenyl)-2H-pyrazol-3-yl]-1H-pyridazin-4-one]",183 nM
11,"O=c1ccn(-c2ccncc2)nc1-c1ccnn1-c1cccc2ncccc12 [Example 22, 1-Pyridin-4-yl-3-(2-quinolin-5-yl-2H-pyrazol-3-yl)-1H-pyridazin-4-one]",35 nM
12,"O=c1ccn(-c2cncc(Cl)c2)nc1-c1ccnn1-c1ccnc2ccc(Cl)cc12 [Example 61, 1-(5-Chloro-pyridin-3-yl)-3-[2-(6-chloro-quinolin-4-yl)-2H-pyrazol-3-yl]-1H-pyridazin-4-one]",220 nM
13,"O=c1ccn(-c2cncc(OC(F)F)c2)nc1-c1ccnn1-c1cccc2ncccc12 [Example 89, 1-(5-Difluoromethoxy-pyridin-3-yl)-3-(2-quinolin-5-yl-2H-pyrazol-3-yl)-1H-pyridazin-4-one]",46 nM
14,"Cc1cncc(-n2ccc(=O)c(-c3ccnn3-c3cccc(F)c3)n2)c1 [Example 37, 3-[2-(3-Fluoro-phenyl)-2H-pyrazol-3-yl]-1-(5-methyl-pyridin-3-yl)-1H-pyridazin-4-one]",149 nM
15,"Cc1cc(-n2nccc2-c2nn(-c3ccc(Cl)nc3)ccc2=O)ccn1 [Example 88, 1-(6-Chloro-pyridin-3-yl)-3-[2-(2-methyl-pyridin-4-yl)-2H-pyrazol-3-yl]-1H-pyridazin-4-one]",1130 nM
16,"O=c1ccn(-c2ccncc2)nc1-c1ccnn1-c1cccc(Cl)n1 [Example 1, 3-[2-(6-Chloro-pyridin-2-yl)-2H-pyrazol-3-yl]-1-pyridin-4-yl-1H-pyridazin-4-one]",8100 nM
